Measurements taken from ChEMBL document CHEMBL1201862, “PubChem BioAssay data set” (2004).
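Values below derive from 48-hour exposures of cells grown in 96-well plates, with endpoints linearly interpolated between the two concentrations bracketing the appropriate inhibition level. GI50 marks 50% less growth.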 Calls of active or inactive are those of the source. No stated cut-off is given here; in the data, active = GI50 up to about 1.1 µM and inactive = higher.

Legend:
Experiment in all cases: NCI-60 cell line screen, 48 h
CAKI-1 = test system: CAKI-1
EKVX = test system: EKVX
HOP-92 = test system: HOP-92
Hs-578T = test system: Hs-578T
MOLT-4 = test system: MOLT-4
NCI-H226 = test system: NCI-H226
NCI-H23 = test system: NCI-H23
PC-3 = test system: PC-3
RPMI-8226 = test system: RPMI-8226
SF-268 = test system: SF-268
SK-MEL-28 = test system: SK-MEL-28
SK-MEL-5 = test system: SK-MEL-5
SK-OV-3 = test system: SK-OV-3
SNB-19 = test system: SNB-19
SW-620 = test system: SW-620
TK-10 = test system: TK-10
U-251 = test system: U-251
UACC-62 = test system: UACC-62
UO-31 = test system: UO-31
HCC 2998 = test system: HCC 2998

Measured: GI50

O=C(c1ccsc1)c1nccc2c1cnc1ccccc12
inactive: CAKI-1 > 100 µM | EKVX 15.6 µM | HOP-92 22.5 µM | Hs-578T 17 µM | MOLT-4 4.44 µM | NCI-H226 34.8 µM | NCI-H23 45.3 µM | PC-3 > 100 µM | RPMI-8226 > 100 µM | SF-268 77.3 µM | SK-MEL-28 > 100 µM | SK-MEL-5 36.2 µM | SK-OV-3 54.8 µM | SNB-19 53.5 µM | SW-620 > 100 µM | TK-10 42.6 µM | U-251 85.1 µM | UACC-62 65.6 µM | UO-31 6.55 µM

CCOC(=O)C(CO)c1nc2c([nH]c1=O)c(=O)n(C)c(=O)n2C (stereo unspecified)
inactive: CAKI-1 > 100 µM | EKVX > 100 µM | HCC 2998 > 100 µM | Hs-578T > 100 µM | NCI-H226 > 100 µM | NCI-H23 > 100 µM | PC-3 > 100 µM | RPMI-8226 > 100 µM | SF-268 > 100 µM | SK-MEL-28 > 100 µM | SNB-19 > 100 µM | SW-620 > 100 µM | TK-10 > 100 µM | U-251 > 100 µM | UACC-62 > 100 µM | UO-31 > 100 µM
active: SK-MEL-5 0.579 µM

CSc1cc(Cl)c(C)cc1S(=O)(=O)NC(=O)NNc1ccc(C)cc1
inactive: CAKI-1 82 µM | EKVX > 100 µM | HCC 2998 22.2 µM | Hs-578T > 100 µM | MOLT-4 43 µM | NCI-H226 > 100 µM | PC-3 43.5 µM | SF-268 > 100 µM | SK-MEL-28 > 100 µM | SK-MEL-5 > 100 µM | SK-OV-3 68.9 µM | SNB-19 > 100 µM | SW-620 > 100 µM | U-251 > 100 µM

Clc1nc(Cl)c(Cc2ccccc2)c(Cl)n1
inactive: EKVX 19 µM | HCC 2998 13.7 µM | Hs-578T 2.66 µM | MOLT-4 2.98 µM | NCI-H226 13.3 µM | NCI-H23 8.32 µM | PC-3 3.7 µM | RPMI-8226 5.32 µM | SF-268 18.6 µM | SK-MEL-28 10.5 µM | SK-MEL-5 2.37 µM | SK-OV-3 11.5 µM | SNB-19 17.9 µM | SW-620 3.09 µM | TK-10 18.3 µM | U-251 11.7 µM | UACC-62 3.69 µM | UO-31 18.2 µM

CCOc1cc(-c2nc3ccccn3c2/N=C/c2cc(Br)ccc2O)ccc1O
inactive: CAKI-1 67.1 µM | EKVX 23 µM | HOP-92 21.1 µM | Hs-578T 61.4 µM | MOLT-4 45.7 µM | NCI-H226 93.3 µM | NCI-H23 39.8 µM | PC-3 18.8 µM | RPMI-8226 26.5 µM | SF-268 19.1 µM | SK-MEL-28 > 100 µM | SK-MEL-5 30.3 µM | SK-OV-3 29.2 µM | SNB-19 21.3 µM | SW-620 65 µM | TK-10 21.1 µM | U-251 17.5 µM | UACC-62 23.9 µM | UO-31 27 µM

COc1ccc2c(c1)C1=NCCN(CCN(C)C)c3ccc([N+](=O)[O-])c(c31)N2
active: CAKI-1 0.56 µM | EKVX 0.736 µM | HOP-92 0.603 µM | MOLT-4 0.355 µM | NCI-H23 0.701 µM | PC-3 0.411 µM | RPMI-8226 0.442 µM | SF-268 0.509 µM | SK-MEL-5 0.845 µM | SK-OV-3 0.259 µM | SNB-19 0.492 µM | SW-620 0.252 µM | TK-10 1.1 µM | U-251 0.649 µM | UACC-62 0.535 µM | UO-31 0.735 µM
inactive: Hs-578T 1.75 µM | NCI-H226 2.17 µM | SK-MEL-28 1.28 µM
